# Experimental data taken from the NIST ThermoML archive (doi:10.1021/acs.jced.7b00712).
# ± gives the expanded uncertainty stated by the source.
# Settings: Fluid (supercritical or subcritical phases), Brillouin light scattering
smiles,measurement,setting,value
"CC(C)CC(C)(C)C [2,2,4-trimethylpentane]",speed of sound,"543.74 K, 6000 kPa",314.4 ± 4.6 m/s
same,speed of sound,"544.07 K, 10000 kPa",409.3 ± 5.6 m/s
same,speed of sound,"544.08 K, 12000 kPa",448.4 ± 6 m/s
same,speed of sound,"547.77 K, 3000 kPa",135.2 ± 7.2 m/s
same,speed of sound,"548.38 K, 4000 kPa",216.1 ± 6 m/s
same,speed of sound,"548.79 K, 5000 kPa",262.4 ± 4.9 m/s
same,speed of sound,"548.93 K, 12000 kPa",439.8 ± 5.9 m/s
same,speed of sound,"548.94 K, 6000 kPa",301.9 ± 4.5 m/s
same,speed of sound,"549.02 K, 10000 kPa",399.6 ± 5.5 m/s
same,speed of sound,"552.48 K, 3000 kPa",103.8 ± 6.9 m/s
same,speed of sound,"553.35 K, 4000 kPa",194.1 ± 6.5 m/s
same,speed of sound,"553.8 K, 5000 kPa",247.6 ± 5 m/s
same,speed of sound,"553.96 K, 6000 kPa",286.4 ± 4.4 m/s
same,speed of sound,"554.24 K, 12000 kPa",430.8 ± 5.8 m/s
same,speed of sound,"554.27 K, 10000 kPa",392.6 ± 5.5 m/s
same,speed of sound,"558.01 K, 3000 kPa",97.9 ± 5.6 m/s
same,speed of sound,"558.52 K, 10000 kPa",386.7 ± 5.4 m/s
same,speed of sound,"558.54 K, 12000 kPa",426 ± 5.7 m/s
same,speed of sound,"559.12 K, 6000 kPa",272.8 ± 4.8 m/s
same,speed of sound,"559.16 K, 5000 kPa",232.4 ± 5 m/s
same,speed of sound,"559.18 K, 4000 kPa",172.1 ± 6 m/s
same,speed of sound,"563.28 K, 4000 kPa",154.4 ± 5.4 m/s
same,speed of sound,"564.27 K, 5000 kPa",214.5 ± 5.1 m/s
same,speed of sound,"564.68 K, 12000 kPa",415.3 ± 5.6 m/s
same,speed of sound,"564.81 K, 10000 kPa",374.5 ± 5.3 m/s
same,speed of sound,"564.85 K, 6000 kPa",257.3 ± 4.2 m/s
same,speed of sound,"567.24 K, 3000 kPa",109.9 ± 2.6 m/s
same,speed of sound,"568.08 K, 4000 kPa",137.3 ± 4.3 m/s
same,speed of sound,"569.24 K, 5000 kPa",201.2 ± 5.2 m/s
same,speed of sound,"569.81 K, 12000 kPa",404.7 ± 5.5 m/s
same,speed of sound,"570.06 K, 6000 kPa",244.3 ± 4.1 m/s
same,speed of sound,"570.54 K, 10000 kPa",362.4 ± 5.2 m/s
same,speed of sound,"570.76 K, 3000 kPa",112.7 ± 1.6 m/s
same,speed of sound,"573.32 K, 4000 kPa",122.1 ± 5.4 m/s
same,speed of sound,"574.23 K, 5000 kPa",187 ± 5.2 m/s
same,speed of sound,"574.7 K, 6000 kPa",233 ± 4 m/s
same,speed of sound,"574.8 K, 12000 kPa",398.5 ± 5.5 m/s
same,speed of sound,"575.07 K, 10000 kPa",354 ± 5.1 m/s
same,speed of sound,"576.9 K, 3000 kPa",117.3 ± 1.6 m/s
same,speed of sound,"578.09 K, 4000 kPa",114.9 ± 2.8 m/s
same,speed of sound,"579 K, 5000 kPa",173.2 ± 5 m/s
same,speed of sound,"579.62 K, 6000 kPa",222.1 ± 3.9 m/s
same,speed of sound,"580.26 K, 12000 kPa",388.5 ± 5.4 m/s
same,speed of sound,"580.32 K, 10000 kPa",343.6 ± 5 m/s
same,speed of sound,"582.97 K, 4000 kPa",114.7 ± 2.2 m/s
same,speed of sound,"583.34 K, 3000 kPa",121.9 ± 1.7 m/s
same,speed of sound,"584.13 K, 5000 kPa",161.6 ± 4.5 m/s
same,speed of sound,"584.82 K, 6000 kPa",208.9 ± 3.9 m/s
same,speed of sound,"585.19 K, 12000 kPa",379.7 ± 5.2 m/s
same,speed of sound,"585.35 K, 10000 kPa",337.5 ± 5 m/s
same,speed of sound,"586.96 K, 3000 kPa",125 ± 1.8 m/s
same,speed of sound,"587.1 K, 4000 kPa",116 ± 1.8 m/s
same,speed of sound,"588.18 K, 5000 kPa",151.1 ± 4 m/s
same,speed of sound,"588.98 K, 6000 kPa",199.3 ± 3.8 m/s
same,speed of sound,"589.39 K, 12000 kPa",374.8 ± 5.2 m/s
same,speed of sound,"589.65 K, 10000 kPa",331.2 ± 4.9 m/s
same,speed of sound,"592.49 K, 4000 kPa",117.9 ± 1.6 m/s
same,speed of sound,"592.79 K, 3000 kPa",130.8 ± 2 m/s
same,speed of sound,"593.39 K, 5000 kPa",140.6 ± 3.6 m/s
same,speed of sound,"594.09 K, 6000 kPa",191.7 ± 3.7 m/s
same,speed of sound,"594.93 K, 12000 kPa",363.8 ± 5.1 m/s
same,speed of sound,"595.15 K, 10000 kPa",318.7 ± 4.8 m/s
same,speed of sound,"597.57 K, 4000 kPa",119.2 ± 1.6 m/s
same,speed of sound,"597.98 K, 3000 kPa",136.1 ± 2.2 m/s
same,speed of sound,"598.54 K, 5000 kPa",135.1 ± 3.2 m/s
same,speed of sound,"599.18 K, 6000 kPa",184.6 ± 3.6 m/s
same,speed of sound,"600.35 K, 10000 kPa",311.6 ± 4.7 m/s
same,speed of sound,"600.58 K, 12000 kPa",356.1 ± 5 m/s
same,speed of sound,"602.34 K, 4000 kPa",121.2 ± 1.6 m/s
same,speed of sound,"602.56 K, 3000 kPa",141.1 ± 2.4 m/s
same,speed of sound,"603.22 K, 5000 kPa",132.5 ± 2.8 m/s
same,speed of sound,"604.02 K, 6000 kPa",175.1 ± 3.5 m/s
same,speed of sound,"604.68 K, 12000 kPa",350.2 ± 4.9 m/s
same,speed of sound,"605.01 K, 10000 kPa",304.3 ± 4.6 m/s
same,speed of sound,"607.09 K, 4000 kPa",124.3 ± 1.7 m/s
same,speed of sound,"607.67 K, 5000 kPa",131 ± 2.4 m/s
same,speed of sound,"607.97 K, 3000 kPa",145.8 ± 2.5 m/s
same,speed of sound,"608.43 K, 6000 kPa",167.7 ± 3.4 m/s
same,speed of sound,"609.5 K, 12000 kPa",342.6 ± 4.8 m/s
same,speed of sound,"609.62 K, 10000 kPa",295.9 ± 4.5 m/s
same,speed of sound,"612.44 K, 4000 kPa",129.9 ± 1.8 m/s
same,speed of sound,"612.74 K, 5000 kPa",131.9 ± 2.2 m/s
same,speed of sound,"613.31 K, 3000 kPa",150.4 ± 2.5 m/s
same,speed of sound,"613.49 K, 6000 kPa",164.3 ± 3.3 m/s
same,speed of sound,"614.69 K, 10000 kPa",286.8 ± 4.4 m/s
same,speed of sound,"614.9 K, 12000 kPa",336.6 ± 4.8 m/s
same,speed of sound,"617.81 K, 4000 kPa",134.8 ± 1.9 m/s
same,speed of sound,"618.08 K, 5000 kPa",135 ± 2 m/s
same,speed of sound,"618.6 K, 6000 kPa",159.9 ± 3.2 m/s
same,speed of sound,"618.84 K, 3000 kPa",154.9 ± 2.6 m/s
same,speed of sound,"619.6 K, 12000 kPa",329.3 ± 4.7 m/s
same,speed of sound,"619.8 K, 10000 kPa",281.3 ± 4.3 m/s
same,speed of sound,"622.75 K, 4000 kPa",139 ± 2 m/s
same,speed of sound,"622.82 K, 5000 kPa",137.2 ± 1.9 m/s
same,speed of sound,"623.43 K, 6000 kPa",156.1 ± 3.1 m/s
same,speed of sound,"623.75 K, 3000 kPa",159.5 ± 2.6 m/s
same,speed of sound,"624.61 K, 12000 kPa",321.5 ± 4.6 m/s
same,speed of sound,"624.7 K, 10000 kPa",276.4 ± 4.3 m/s
same,speed of sound,"627.69 K, 5000 kPa",141.2 ± 1.9 m/s
same,speed of sound,"628.07 K, 4000 kPa",145.5 ± 2.1 m/s
same,speed of sound,"628.11 K, 6000 kPa",153.4 ± 2.9 m/s
same,speed of sound,"629.13 K, 10000 kPa",269.4 ± 4.2 m/s
same,speed of sound,"629.2 K, 12000 kPa",316.9 ± 4.5 m/s
same,speed of sound,"629.42 K, 3000 kPa",164 ± 2.5 m/s
same,speed of sound,"631.25 K, 5000 kPa",143.4 ± 1.9 m/s
same,speed of sound,"631.51 K, 6000 kPa",156 ± 2.3 m/s
same,speed of sound,"632.19 K, 4000 kPa",148.1 ± 2.1 m/s
same,speed of sound,"633.71 K, 3000 kPa",166.1 ± 2.6 m/s
